Measurements reported in patent US11446287B2, “Compounds and methods for EP300 or CBP modulation and indications therefor” (Opna Immuno-Oncology SA, priority 2019, dated 2022).

These compounds were tested against T1, Recombinant human CBP containing the bromodomain (CBP-BD (1043-1159)) (Homo sapiens, UniProt Q92793) (assay: CBP Alphascreen binding assay). Details: read-out: CREBBP (CBP) IC50.
T1 construct: Recombinant human CBP bromodomain (CBP-BD (1043-1159)); made in house; host or cells: E. coli BL21-CodonPlus (DE3), modified pET vector
T1 sequence (Q92793 1081-1197): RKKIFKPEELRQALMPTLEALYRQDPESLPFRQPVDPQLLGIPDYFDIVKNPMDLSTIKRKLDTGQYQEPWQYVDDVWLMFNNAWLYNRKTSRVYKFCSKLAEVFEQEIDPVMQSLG
Summary of the method: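 Buffer: 50 mM HEPES pH 7.5, 50 mM NaCl, 0.01% BSA, 0.01% Triton X-100, 2 mM DTT. The signal was normalised to plate controls and fitted with a four-parameter curve to give IC50.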

`Cc1noc(C)c1-c1cnc2c(c1)c(-c1ccc(C(=O)O)cc1OC(C)C)cn2-c1cnn(CC(C)(C)O)c1` [P-0299, 4-(5-(3,5-dimethylisoxazol-4-yl)-1-(1-(2-hydroxy-2-methylpropyl)-1H-pyrazol-4-yl)-1H-pyrrolo[2,3-b]pyridin-3-yl)-3-isopropoxybenzoic acid] and `Cc1noc(C)c1-c1cnc2c(c1)c(-c1ccc(C(=O)O)cc1OC(F)F)cn2-c1ccccc1` [P-0273, 3-(difluoromethoxy)-4-(5-(3,5-dimethylisoxazol-4-yl)-1-phenyl-1H-pyrrolo[2,3-b]pyridin-3-yl)benzoic acid] fall in the same range of IC50: 0.0001 to 1 µM for the first, 0.0001 to 1 µM for the second.

`Cc1noc(C)c1-c1cnc2c(c1)c(-c1ccc(C(=O)O)cc1OCC(F)F)cn2-c1ccncc1Cl` [P-0306, 4-(1-(3-chloropyridin-4-yl)-5-(3,5-dimethylisoxazol-4-yl)-1H-pyrrolo[2,3-b]pyridin-3-yl)-3-(2,2-difluoroethoxy)benzoic acid] and `Cc1noc(C)c1-c1cnc2c(c1)c(-c1ccc(C(=O)O)cc1OC(F)(F)F)cn2-c1ccncc1Cl` [P-0253, 4-(1-(3-chloropyridin-4-yl)-5-(3,5-dimethylisoxazol-4-yl)-1H-pyrrolo[2,3-b]pyridin-3-yl)-3-(trifluoromethoxy)benzoic acid] fall in the same range of IC50: 0.0001 to 1 µM for the first, 0.0001 to 1 µM for the second.

Compared with `Cc1noc(C)c1-c1cnc2c(c1)c(-c1ccc(C(=O)O)c(F)c1)cn2C(c1ccccn1)C1CCCC1` (stereo not drawn) [P-0025, 4-(1-(cyclopentyl(pyridin-2-yl)methyl)-5-(3,5-dimethylisoxazol-4-yl)-1H-pyrrolo[2,3-b]pyridin-3-yl)-2-fluorobenzoic acid], `Cc1noc(C)c1-c1cnc2c(c1)c(-c1ccc(C(N)=O)cc1)cn2C(c1ccccn1)C1CCCC1` (stereo not drawn) [P-0020, 4-(1-(cyclopentyl(pyridin-2-yl)methyl)-5-(3,5-dimethylisoxazol-4-yl)-1H-pyrrolo[2,3-b]pyridin-3-yl)benzamide] is higher in IC50: 0.0001 to 1 µM for the first, 1 to 8 µM for the second.

`CCOc1cc(C(=O)O)cc(OCC)c1-n1cc(-c2cnn(C(F)F)c2)c2ncc(-c3c(C)noc3C)cc21` [P-0261, 4-(3-(1-(difluoromethyl)-1H-pyrazol-4-yl)-6-(3,5-dimethylisoxazol-4-yl)-1H-pyrrolo[3,2-b]pyridin-1-yl)-3,5-diethoxybenzoic acid] and `CCOc1cc(C(=O)O)cc(OCC)c1-n1cc(-c2cnn(CS(C)(=O)=O)c2)c2ncc(-c3c(C)noc3C)cc21` [P-0258, 4-(6-(3,5-dimethylisoxazol-4-yl)-3-(1-((methylsulfonyl)methyl)-1H-pyrazol-4-yl)-1H-pyrrolo[3,2-b]pyridin-1-yl)-3,5-diethoxybenzoic acid] fall in the same range of IC50: 0.0001 to 1 µM for the first, 0.0001 to 1 µM for the second.

`Cc1noc(C)c1-c1cnc2c(c1)c(-c1ccc(C(=O)O)cc1OC(F)(F)F)cn2-c1ccccc1C1CC1` [P-0308, 4-(1-(2-cyclopropylphenyl)-5-(3,5-dimethylisoxazol-4-yl)-1H-pyrrolo[2,3-b]pyridin-3-yl)-3-(trifluoromethoxy)benzoic acid] and `Cc1noc(C)c1-c1cnc2c(c1)c(-c1ccc(C(=O)O)cc1OC(F)(F)F)cn2-c1ccccc1Cl` [P-0307, 4-(1-(2-chlorophenyl)-5-(3,5-dimethylisoxazol-4-yl)-1H-pyrrolo[2,3-b]pyridin-3-yl)-3-(trifluoromethoxy)benzoic acid] fall in the same range of IC50: 0.0001 to 1 µM for the first, 0.0001 to 1 µM for the second.

`Cc1noc(C)c1-c1cnc2c(c1)c(-c1cc(C(=O)O)ccc1OC(F)(F)F)cn2-c1ccc(F)cc1F` [P-0268, 3-(1-(2,4-difluorophenyl)-5-(3,5-dimethylisoxazol-4-yl)-1H-pyrrolo[2,3-b]pyridin-3-yl)-4-(trifluoromethoxy)benzoic acid] and `Cc1noc(C)c1-c1cnc2c(c1)c(-c1ccc(C(=O)O)cc1OC(F)(F)F)cn2-c1ccncc1F` [P-0293, 4-(5-(3,5-dimethylisoxazol-4-yl)-1-(3-fluoropyridin-4-yl)-1H-pyrrolo[2,3-b]pyridin-3-yl)-3-(trifluoromethoxy)benzoic acid] fall in the same range of IC50: 0.0001 to 1 µM for the first, 0.0001 to 1 µM for the second.

`CCOc1cc(OC)c(C(=O)O)cc1-c1cn(-c2ccc(F)cc2F)c2ncc(-c3c(C)noc3C)cc12` [P-0250, 5-(1-(2,4-difluorophenyl)-5-(3,5-dimethylisoxazol-4-yl)-1H-pyrrolo[2,3-b]pyridin-3-yl)-4-ethoxy-2-methoxybenzoic acid] and `Cc1noc(C)c1-c1cnc2c(-c3ccc(F)cc3F)cn(-c3c(OC(C)C)cc(C(=O)O)cc3OC(C)C)c2c1` [P-0269, 4-(3-(2,4-difluorophenyl)-6-(3,5-dimethylisoxazol-4-yl)-1H-pyrrolo[3,2-b]pyridin-1-yl)-3,5-diisopropoxybenzoic acid] fall in the same range of IC50: 0.0001 to 1 µM for the first, 0.0001 to 1 µM for the second.

`Cc1noc(C)c1-c1cnc2c(-c3ccccc3)cn(-c3cc(C(=O)O)ccc3OC(F)(F)F)c2c1` [P-0274, 3-(6-(3,5-dimethylisoxazol-4-yl)-3-phenyl-1H-pyrrolo[3,2-b]pyridin-1-yl)-4-(trifluoromethoxy)benzoic acid] and `Cc1noc(C)c1-c1cnc2c(c1)c(-c1ccc(C(=O)O)cc1OC(F)(F)F)cn2-c1ccsc1` [P-0315, 4-(5-(3,5-dimethylisoxazol-4-yl)-1-(thiophen-3-yl)-1H-pyrrolo[2,3-b]pyridin-3-yl)-3-(trifluoromethoxy)benzoic acid] fall in the same range of IC50: 0.0001 to 1 µM for the first, 0.0001 to 1 µM for the second.

`Cc1noc(C)c1-c1cnc2c(-c3cccc(C(=O)O)c3Cl)c(C(F)(F)F)n([C@@H](C)c3ccccn3)c2c1` [P-0247, (S)-2-chloro-3-(6-(3,5-dimethylisoxazol-4-yl)-1-(1-(pyridin-2-yl)ethyl)-2-(trifluoromethyl)-1H-pyrrolo[3,2-b]pyridin-3-yl)benzoic acid] and `Cc1noc(C)c1-c1cnc2c(c1)c(-c1ccc(C(=O)O)cc1OC(F)(F)F)cn2-c1cnccc1O` [P-0252, 4-(5-(3,5-dimethylisoxazol-4-yl)-1-(4-hydroxypyridin-3-yl)-1H-pyrrolo[2,3-b]pyridin-3-yl)-3-(trifluoromethoxy)benzoic acid] fall in the same range of IC50: 0.0001 to 1 µM for the first, 0.0001 to 1 µM for the second.

First: Cc1noc(C)c1-c1cnc2c(c1)c(-c1ccc(C#N)cc1)cn2C(c1ccccn1)C1CCCC1 (stereo not drawn) [P-0022, 4-(1-(cyclopentyl(pyridin-2-yl)methyl)-5-(3,5-dimethylisoxazol-4-yl)-1H-pyrrolo[2,3-b]pyridin-3-yl)benzonitrile]
Second: CNC(=O)c1ccc(-c2cn(C(c3ccccn3)C3CCCC3)c3ncc(-c4c(C)noc4C)cc23)cc1 (stereo not drawn) [P-0021, 4-(1-(cyclopentyl(pyridin-2-yl)methyl)-5-(3,5-dimethylisoxazol-4-yl)-1H-pyrrolo[2,3-b]pyridin-3-yl)-N-methylbenzamide]
The IC50 of the first is higher: 8 to 1000 µM for the first, 1 to 8 µM for the second. The second is the more potent here.

`Cc1nnn(C)c1-c1cnc2c(c1)c(-c1ccc(C(=O)O)cc1OC(F)(F)F)cn2CC/C=C/C1CC1` [P-0305, (E)-4-(1-(4-cyclopropylbut-3-en-1-yl)-5-(1,4-dimethyl-1H-1,2,3-triazol-5-yl)-1H-pyrrolo[2,3-b]pyridin-3-yl)-3-(trifluoromethoxy)benzoic acid] and `Cc1noc(C)c1-c1cnc2c(c1)c(-c1ccc(C(=O)O)cc1OC(F)(F)F)cn2-c1cnn(C(F)F)c1C` [P-0289, 4-(1-(1-(difluoromethyl)-5-methyl-1H-pyrazol-4-yl)-5-(3,5-dimethylisoxazol-4-yl)-1H-pyrrolo[2,3-b]pyridin-3-yl)-3-(trifluoromethoxy)benzoic acid] fall in the same range of IC50: 0.0001 to 1 µM for the first, 0.0001 to 1 µM for the second.

First: Cc1noc(C)c1-c1cnc2c(c1)c(-c1ccc(-c3nn[nH]n3)cc1)cn2C(c1ccccn1)C1CCCC1 (stereo not drawn) [P-0024, 4-(3-(4-(2H-tetrazol-5-yl)phenyl)-1-(cyclopentyl(pyridin-2-yl)methyl)-1H-pyrrolo[2,3-b]pyridin-5-yl)-3,5-dimethylisoxazole]
Second: Cc1noc(C)c1-c1cnc2c(c1)c(-c1ccc(C(=O)O)cc1OC1CCC1)cn2-c1ccccc1 [P-0276, 3-cyclobutoxy-4-(5-(3,5-dimethylisoxazol-4-yl)-1-phenyl-1H-pyrrolo[2,3-b]pyridin-3-yl)benzoic acid]
The IC50 of the first is higher: 1 to 8 µM for the first, 0.0001 to 1 µM for the second.

`CCOc1cc(C(=O)O)cc(OCC)c1-n1cc(-c2cn(C)nc2C)c2ncc(-c3c(C)noc3C)cc21` [P-0263, 4-(3-(1,3-dimethyl-1H-pyrazol-4-yl)-6-(3,5-dimethylisoxazol-4-yl)-1H-pyrrolo[3,2-b]pyridin-1-yl)-3,5-diethoxybenzoic acid] and `Cc1nn(C(F)F)cc1-n1cc(-c2ccc(C(=O)O)cc2OC(F)(F)F)c2cc(-c3c(C)noc3C)cnc21` [P-0288, 4-(1-(1-(difluoromethyl)-3-methyl-1H-pyrazol-4-yl)-5-(3,5-dimethylisoxazol-4-yl)-1H-pyrrolo[2,3-b]pyridin-3-yl)-3-(trifluoromethoxy)benzoic acid] fall in the same range of IC50: 0.0001 to 1 µM for the first, 0.0001 to 1 µM for the second.

`Cc1noc(C)c1-c1cnc2c(c1)c(-c1cnn(CC(=O)O)c1)cn2-c1ncccc1C#CC1CC1` [P-0272, 2-(4-(1-(3-(cyclopropylethynyl)pyridin-2-yl)-5-(3,5-dimethylisoxazol-4-yl)-1H-pyrrolo[2,3-b]pyridin-3-yl)-1H-pyrazol-1-yl)acetic acid] and `Cc1noc(C)c1-c1cnc2c(c1)c(-c1ccc(C(=O)O)cc1OC(F)(F)F)cn2-c1c(F)cccc1C#N` [P-0254, 4-(1-(2-cyano-6-fluorophenyl)-5-(3,5-dimethylisoxazol-4-yl)-1H-pyrrolo[2,3-b]pyridin-3-yl)-3-(trifluoromethoxy)benzoic acid] fall in the same range of IC50: 0.0001 to 1 µM for the first, 0.0001 to 1 µM for the second.

`Cc1noc(C)c1-c1cnc2c(c1)c(-c1c(Cl)cc(C(=O)O)cc1OC(C)C)cn2C(C1CC1)C1CC1` [P-0283, 3-chloro-4-(1-(dicyclopropylmethyl)-5-(3,5-dimethylisoxazol-4-yl)-1H-pyrrolo[2,3-b]pyridin-3-yl)-5-isopropoxybenzoic acid] and `Cc1noc(C)c1-c1cnc2c(c1)c(-c1ccc(C(=O)O)cc1OC(F)(F)F)cn2C1CCN(S(C)(=O)=O)CC1` [P-0292, 4-(5-(3,5-dimethylisoxazol-4-yl)-1-(1-(methylsulfonyl)piperidin-4-yl)-1H-pyrrolo[2,3-b]pyridin-3-yl)-3-(trifluoromethoxy)benzoic acid] fall in the same range of IC50: 0.0001 to 1 µM for the first, 0.0001 to 1 µM for the second.
